From patent US20250222119A1, “ENGINEERING OF MULTIFUNCTIONAL PEPTIDES FOR CONTROLLED DRUG DELIVERY” (The Johns Hopkins University, priority 2022, published 2025)

How the values were obtained:
ARPE-19 cells = test: Cell-penetration assay with biotinylated peptides in induced and non-induced ARPE-19 cells; format: cell-based; conditions: C-terminal biotinylated peptide 100 μM, 6 h, 37° C.
Procedure: Four 96 well plates per group were seeded at 0.01×10^6 cells/well. ARPE-19 cells were either cultured with DMEM:F12 medium containing 10% FBS according to protocol provided by the vendor (non-induced) or cultured in DMEM high glucose, pyruvate media with […] of ferric ammonium citrate (Wolkow, N. et al., Exp Eye Res 128, 92-101, (2014)) for 2 months (induced) (Kim, Y. C. et al. Drug Deliv Transl Res, doi:10.1007/s13346-021-00987-6 (2021)). The expression of melanin was confirmed visually with bright field microscopy and by measuring absorbance at 475 nm (>0.4 a.u., not shown). Within each plate, 12 wells were randomly selected to quantify the cell numbers with an automated cell counter (Countess 3 Automated Cell Counter, Thermo Fisher) for normalization in the cell uptake study. Next, 100 μL (100 μM in pH 6.5 PBS) of each of the 127 C-terminal biotinylated peptides was added to n=3 wells for both the induced and non-induced ARPE-19 cells for 6 h at 37° C. The cells were then washed thoroughly 5 times with PBS solution to remove extracellular peptide. To quantify cell-associated peptides, the cells were lysed with 100 μL of RIPA lysis buffer at 4 C for 48 h. […] The mean intracellular concentration values were grouped by cell types (induced or non-induced), and the two-sample Wilcoxon test (Mann-Whitney) was calculated using the R function wilcox.test. Intracellular concentration values were also plotted against experimental melanin binding and the relationship was quantified using a simple linear model and its corresponding R^2.
It was next characterized how the predicted cell-penetrating properties of the peptides affected cell uptake in a retinal pigment epithelium (RPE) cell line (ARPE-19). ARPE-19 cells were cultured using standard methods (non-induced, n=3) and using culture conditions that induce melanin production (induced, n=3) (Kim, Y. C. et al., Drug Deliv Transl Res, doi:10.1007/s13346-021-00987-6 (2021)).

[1] = system: normotensive Dutch Belted rabbits; test: Rabbit IOP measurements after intracameral injection or topical dosing; format: in vivo; conditions: single intracameral injection
Procedure: For the ICM injection procedure, rabbits were anesthetized with ketamine/xylazine and received topical anesthesia with 0.5% proparacaine hydrochloride. […] After the procedure, topical bacitracin-neomycin-polymyxin ophthalmic ointment was applied to both eyes to prevent infection and dry eyes. […] The IOP were measured immediately before the topical dosing (0 h), and at 2, 4, 6 and 8 h after the eyedrop administration.

FSGKRRKRKPR [HR97]
cell uptake (intracellular peptide concentration) (ARPE-19 cells; non-induced ARPE-19 cells): 82.5±15.8 pmol/100K cells

YGRKKRRQRRR [TAT47-57]
cell uptake (intracellular peptide concentration) (ARPE-19 cells; induced (melanin-producing) ARPE-19 cells): 478±20.8 pmol/100K cells
cell uptake (intracellular peptide concentration) (ARPE-19 cells; non-induced ARPE-19 cells): 58.7±7.43 pmol/100K cells

Brc1c(NC2=NCCN2)ccc2nccnc12 [brimonidine]
time for the average ΔIOP to return to baseline [1]: 8 days
peak reduction in IOP from baseline (ΔIOP) ([1]; at 2 days, n=5): −2.6±1.65 mmHg
